# Results published in patent US5849782A, “Methods of inhibiting neurodegenerative diseases” (The General Hospital Corporation, priority 1996, dated 1998).
# Experiments:
# Male Sprague-Dawley rats [1] = assay: Spontaneous striatal electrophysiological activity; details: 60 minutes after 50 mg/kg 7-NI; urethane anesthetized rats
# Description: Electrophysiology. Four male Sprague-Dawley rats weighing 300 to 400 g were used for electrophysiological studies. Animals were anesthetized with urethane 1.5 g/kg i.p. and placed in a stereotaxic apparatus with their body temperatures maintained at 37° C. by a feedback heating pad. A 0.5×0.5 cm craniotomy was made and recording electrodes were placed in the anterior striatum using stereotaxic coordinates and aural monitoring. Following electrode placement the craniotomy was covered with 4% agar in saline and 30 min were allowed for stabilization before recordings were made. The spontaneous activity of multiple units were recorded extracellularly in the striatum, 3-4 mm anterior to the bregma and 3-4 mm lateral to the midline at a depth of 2.5-4.0 mm using commercially available tungsten microelectrodes (4 M.OMEGA. at 1 kHz, F. Haer, Inc.). […] Data acquisition and analysis of mean firing rate was performed using Discovery.COPYRGT., Experimenters WorkBench.COPYRGT. and Personal Scientific Workstation.COPYRGT. software (DataWave Technologies, Longmont, Colo.). We investigated the electrophysiological effects of the NMDA antagonist MK-801 and the NOS inhibitor 7-NI. […] Finally, spontaneous activity was recorded after the NMDA channel mediated activity was blocked by injection of MK-801 (4 mg/kg).
# rats = assay: Striatal ATP after intrastriatal malonate (luciferin-luciferase); assay type: in vivo, rat; details: 7-NI 50 mg/kg; 3 μmol malonate; measured 1.5 h after injection
# Description: ATP Measurements. The effects of 7-NI on malonate-induced decreases in striatal ATP concentrations were examined. 50 mg/kg of 7-NI dissolved in peanut oil or peanut oil vehicle were administered i.p. 0.5 h before intrastriatal injection of 3 μmol malonate. […] After decapitation the heads were rapidly frozen in liquid nitrogen and subsequently stored at -70° C. The striata were dissected from a 2 mm slice frontal and adjacent to the anterior commissure on a freezing cold plate. The corpus callosum, the septal complex, and the anterior commissure were used as dorsal and lateral, medial, and ventral boundaries. ATP was measured by the luciferin-luciferase assay (Lust et al. (1981) Anal. Biochem. 110-258-266). Proteins were measured on the pellets using a fluorimetric assay. Eight animals per group were examined.
# Male Sprague-Dawley rats [2] = assay: Body temperature in rats under pentobarbital anesthesia; assay type: in vivo, rat; details: 1 h after 50 mg/kg 7-NI i.p., control 36.5±0.1, p<0.02
# Description: Stereotaxic Lesion Technique. Male Sprague-Dawley rats (Charles River, Cambridge, Mass.) weighing 300-325 g were anesthetized with pentobarbital (50 mg/kg i.p.) and positioned in a David Kopf stereotaxic instrument with the incisor bar set at 3.3 mm below the intermural line. Malonate, NMDA, KA, and AMPA were dissolved in 0.1M phosphate-buffered saline (pH, 7.4). Intrastriatal injections were made with a 10 μl Hamilton syringe fitted with a 30 gauge blunt-tipped needle into the left striatum at the coordinates 0.5 mm anterior bregma, 2.6 mm lateral to the midline and 5 mm ventral to the dura. Injection volumes were 1 μl (3 μmol malonate). All injections were made over 1 min and the needle was left in place for an additional 1 min before being slowly withdrawn. 7-NI was dissolved and sonicated in peanut oil at a concentration of 10 mg/ml. 50 mg/kg of 7-NI were administered i.p. 30 min before striatal injections of malonate, NMDA, KA and AMPA. […] Nine to ten animals were used per group in each experiment.
# Male Sprague-Dawley rats [3] = assay: Lactate and lesion volume by magnetic resonance after intrastriatal malonate; assay type: in vivo, rat
# Description: Localized Lactate Measurements by Magnetic Resonance Spectroscopy. The effects on lactate production of intrastriatal injections of 3 μmol malonate and the influence of pretreatment with 7-NI on these lactate levels were assessed in vivo using magnetic resonance imaging (Brouillet et al. (1993) J. Neurochem. 60:356-359). Male Sprague-Dawley rats weighing 275-325 g received either i.p. injections of peanut oil (vehicle) or 50 mg/kg 7-NI (n=5-6 per group). […] Rats were imaged under halothane/N2 O/O2 anesthesia on a 4.7 Tesla GE Omega CSI Imager using a 30 mm bird cage coil at 1.5-2 h after striatal malonate injections. […] Lesion volumes were measured using a T2 -weighted sequence (TR/TE 3200/80 ms) with slice thickness of 2.5 mm, and a field of view of 40 mm. Lesion volumes were measured using a criterion for abnormal tissue of being 2 standard deviations above the mean signal intensity in the contralateral unaffected striatum. Lactate was measured using double phase encoding three dimensional (x,y,ω) water suppressed chemical shift imaging sequence with an inversion pulse for lipid suppression described earlier (Jenkins et al. (1993) Neurology 43:2689-2695). […] Lactate concentrations were measured in the lesioned striatum by delineating the striatum in the water image and overlaying the contours on the lactate images. […]
# Male Sprague Dawley rats = assay: Salicylate hydroxyl trapping and 3-nitrotyrosine after systemic 3-NP; assay type: in vivo, rat; details: 3-NP 20 mg/kg i.p. every 12 h x3; 7-NI 50 mg/kg
# Description: Salicylate assay and 3-nitrotyrosine measurements. The salicylate hydroxyl trapping method of Floyd et al. ((1984) supra, Cao et al. (1988) Neurosci. Lett. 88:233-238, and Hall et al. (1993) J. Neurochem. 60:588-594) was used for measuring ^.cndot. OH radicals in striatal tissue following i.p. administration of 3-NP. Male Sprague Dawley rats weighing 125-150 g (n-10 per group) were injected i.p. every 12 h for 3 times with either (i) saline, (ii) 20 mg/kg of 3-NP and peanut oil vehicle, or (iii) 20 mg/kg of 3-NP and 7-NI dissolved in peanut oil. […] Salicylate and its metabolites 2,3 and 2,5 dihydroxybenzoic acid (DHBA) were quantified by HPLC with 16-electrode electrochemical detection (Beal et al. (1990) supra). Salicylate, 2,3 and 2,5 DHBA, tyrosine and 3-nitrotyrosine were measured electrochemically by oxidation at 840, 240, 120 mV, 600 mV, and 840 mV, respectively. The data were expressed as the ratio of 2,3 and 2,5 DHBA to salicylate and 3-nitrotyrosine concentrations for differing brain concentrations of salicylate and tyrosine, which could be a consequence of impairment of the blood-brain barrier (salicylate) or neuronal loss during treatment (tyrosine).
smiles,measurement,setting,value
"O=[N+]([O-])c1cccc2cn[nH]c12 [7-NI, 7-nitroindazole]",mean spontaneous firing rate in striatum,Male Sprague-Dawley rats [1],not significantly different from the baseline
same,malonate-induced decreases of striatal ATP concentrations,rats,significantly attenuated
same,body temperature,Male Sprague-Dawley rats [2],35.9±0.26 ° c.
same,malonate-induced increase in striatal lactate concentrations (MR spectroscopy),"Male Sprague-Dawley rats [3]; 7-NI 50 mg/kg i.p. 0.5 h before striatal lesion, 1.5 h after malonate",significantly attenuated
same,lesion volume by T2-weighted MR imaging,"Male Sprague-Dawley rats [3]; 2 h after striatal malonate, n=6, vehicle 84.01±16.2, p<0.01",34.9±27.7 mm^3
same,"3-NP-induced increase of 2,3 and 2,5 DHBA",Male Sprague Dawley rats,significantly attenuated
same,3-NP-induced increase of 3-nitrotyrosine in striatum,Male Sprague Dawley rats,significantly attenuated
